Source: PubChem BioAssay (NCI)
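GI50 marks 50% less growth. The concentration for full growth arrest is given as TGI.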

How the values were obtained:
Assay in all cases: NCI-60 cell line screen, 384-well format
A498 renal = test system: A498 renal
A549 NSCLC = test system: A549 NSCLC
CAKI-1 renal = test system: CAKI-1 renal
CCRF-CEM leukemia = test system: CCRF-CEM leukemia
COLO 205 colon = test system: COLO 205 colon
DU-145 prostate = test system: DU-145 prostate
EKVX NSCLC = test system: EKVX NSCLC
HCC-2998 colon = test system: HCC-2998 colon
HCT-15 colon = test system: HCT-15 colon
HL-60(TB) leukemia = test system: HL-60(TB) leukemia
HOP-62 NSCLC = test system: HOP-62 NSCLC
HOP-92 NSCLC = test system: HOP-92 NSCLC
HS 578T breast = test system: HS 578T breast
HT29 colon = test system: HT29 colon
IGROV1 ovarian = test system: IGROV1 ovarian
LOX IMVI melanoma = test system: LOX IMVI melanoma
MALME-3M melanoma = test system: MALME-3M melanoma
MDA-MB-231 breast = test system: MDA-MB-231 breast
MDA-MB-435 melanoma = test system: MDA-MB-435 melanoma
MDA-MB-468 breast = test system: MDA-MB-468 breast
MOLT-4 leukemia = test system: MOLT-4 leukemia
NCI-H226 lung = test system: NCI-H226 lung
NCI-H23 lung = test system: NCI-H23 lung
NCI-H460 NSCLC = test system: NCI-H460 NSCLC
NCI-H522 lung = test system: NCI-H522 lung
NCI/ADR-RES ovarian = test system: NCI/ADR-RES ovarian
OVCAR-4 ovarian = test system: OVCAR-4 ovarian
OVCAR-8 ovarian = test system: OVCAR-8 ovarian
PC-3 prostate = test system: PC-3 prostate
RXF 393 renal = test system: RXF 393 renal
SF-268 CNS = test system: SF-268 CNS
SF-295 CNS = test system: SF-295 CNS
SF-539 CNS = test system: SF-539 CNS
SK-MEL-2 melanoma = test system: SK-MEL-2 melanoma
SK-MEL-28 melanoma = test system: SK-MEL-28 melanoma
SK-MEL-5 melanoma = test system: SK-MEL-5 melanoma
SK-OV-3 ovarian = test system: SK-OV-3 ovarian
SN12C renal = test system: SN12C renal
SNB-19 CNS = test system: SNB-19 CNS
SNB-75 CNS = test system: SNB-75 CNS
SR leukemia = test system: SR leukemia
SW-620 colon = test system: SW-620 colon
T-47D breast = test system: T-47D breast
TK-10 renal = test system: TK-10 renal
U251 glioblastoma = test system: U251 glioblastoma
UACC-257 melanoma = test system: UACC-257 melanoma
UO-31 renal = test system: UO-31 renal

`COC(=O)c1ccc2c(C(=Nc3ccc(N(C)C(=O)CN4CCN(C)CC4)cc3)c3ccccc3)c(O)[nH]c2c1` showed a GI50 (A498 renal) of 1.64 µM, a TGI (A498 renal) of 3.07 µM and a GI50 (A549 NSCLC) of 1.74 µM. It also gave a TGI (A549 NSCLC) of 3.32 µM, a GI50 (CAKI-1 renal) of 1.37 µM and a TGI (CAKI-1 renal) of 2.81 µM. The GI50 (CCRF-CEM leukemia) was 1.71 µM, the TGI (CCRF-CEM leukemia) was 3.09 µM and the GI50 (COLO 205 colon) was 1.75 µM. For the same molecule, the TGI (COLO 205 colon) was 3.14 µM, the GI50 (DU-145 prostate) was 1.79 µM and the TGI (DU-145 prostate) was 3.34 µM. It also gave a GI50 (EKVX NSCLC) of 2 µM, a TGI (EKVX NSCLC) of 3.65 µM and a GI50 (HCC-2998 colon) of 1.58 µM. For the same molecule, the TGI (HCC-2998 colon) was 2.96 µM, the GI50 (HCT-15 colon) was 1.76 µM and the TGI (HCT-15 colon) was 3.33 µM. The GI50 (HL-60(TB) leukemia) was 2.04 µM, the TGI (HL-60(TB) leukemia) was 3.47 µM and the GI50 (HOP-62 NSCLC) was 1.61 µM. For the same molecule, the TGI (HOP-62 NSCLC) was 3.24 µM, the GI50 (HOP-92 NSCLC) was 0.95 µM and the TGI (HOP-92 NSCLC) was 2.6 µM. The GI50 (HS 578T breast) was 1.28 µM, the TGI (HS 578T breast) was 2.82 µM and the GI50 (HT29 colon) was 1.23 µM. It also gave a TGI (HT29 colon) of 2.51 µM, a GI50 (IGROV1 ovarian) of 0.427 µM and a TGI (IGROV1 ovarian) of 4.47 µM. The GI50 (LOX IMVI melanoma) was 2.23 µM, the TGI (LOX IMVI melanoma) was 3.69 µM and the GI50 (MALME-3M melanoma) was 1.46 µM. The TGI (MALME-3M melanoma) was 2.78 µM, the GI50 (MDA-MB-231 breast) was 1.72 µM and the TGI (MDA-MB-231 breast) was 3.13 µM. It also gave a GI50 (MDA-MB-435 melanoma) of 1.86 µM, a TGI (MDA-MB-435 melanoma) of 3.33 µM and a GI50 (MDA-MB-468 breast) of 1.67 µM. It also gave a TGI (MDA-MB-468 breast) of 3.08 µM, a GI50 (MOLT-4 leukemia) of 0.73 µM and a TGI (MOLT-4 leukemia) of 2.09 µM. For the same molecule, the GI50 (NCI-H226 lung) was 0.812 µM, the TGI (NCI-H226 lung) was 2.19 µM and the GI50 (NCI-H23 lung) was 1.79 µM. The TGI (NCI-H23 lung) was 5.17 µM, the GI50 (NCI-H460 NSCLC) was 1.87 µM and the TGI (NCI-H460 NSCLC) was 3.3 µM. It also gave a GI50 (NCI-H522 lung) of 0.75 µM, a TGI (NCI-H522 lung) of 2.04 µM and a GI50 (NCI/ADR-RES ovarian) of 14.6 µM. The TGI (NCI/ADR-RES ovarian) was over 100 µM, the GI50 (OVCAR-4 ovarian) was 1.44 µM and the TGI (OVCAR-4 ovarian) was 2.87 µM. The GI50 (OVCAR-8 ovarian) was 1.58 µM, the TGI (OVCAR-8 ovarian) was 2.97 µM and the GI50 (PC-3 prostate) was 2.66 µM. It also gave a TGI (PC-3 prostate) of 10.3 µM, a GI50 (RXF 393 renal) of 1.11 µM and a TGI (RXF 393 renal) of 2.58 µM. It also gave a GI50 (SF-268 CNS) of 1.56 µM, a TGI (SF-268 CNS) of 3.1 µM and a GI50 (SF-295 CNS) of 1.83 µM. For the same molecule, the TGI (SF-295 CNS) was 3.25 µM, the GI50 (SF-539 CNS) was 0.545 µM and the TGI (SF-539 CNS) was 1.91 µM. For the same molecule, the GI50 (SK-MEL-2 melanoma) was 1.72 µM, the TGI (SK-MEL-2 melanoma) was 3.12 µM and the GI50 (SK-MEL-28 melanoma) was 1.69 µM. For the same molecule, the TGI (SK-MEL-28 melanoma) was 3.08 µM, the GI50 (SK-MEL-5 melanoma) was 2.19 µM and the TGI (SK-MEL-5 melanoma) was 3.64 µM. For the same molecule, the GI50 (SK-OV-3 ovarian) was 1.34 µM, the TGI (SK-OV-3 ovarian) was 2.78 µM and the GI50 (SN12C renal) was 1.11 µM. The TGI (SN12C renal) was 2.35 µM, the GI50 (SNB-19 CNS) was 1.44 µM and the TGI (SNB-19 CNS) was 4.32 µM. It also gave a GI50 (SNB-75 CNS) of 0.468 µM, a TGI (SNB-75 CNS) of 1.51 µM and a GI50 (SR leukemia) of 0.734 µM. For the same molecule, the TGI (SR leukemia) was 2.02 µM, the GI50 (SW-620 colon) was 1.82 µM and the TGI (SW-620 colon) was 3.25 µM. It also gave a GI50 (T-47D breast) of 1.37 µM, a TGI (T-47D breast) of 2.72 µM and a GI50 (TK-10 renal) of 1.83 µM. It also gave a TGI (TK-10 renal) of 3.82 µM, a GI50 (U251 glioblastoma) of 1.46 µM and a TGI (U251 glioblastoma) of 2.86 µM. For the same molecule, the GI50 (UACC-257 melanoma) was 1.33 µM, the TGI (UACC-257 melanoma) was 2.61 µM and the GI50 (UO-31 renal) was 1.4 µM. For the same molecule, the TGI (UO-31 renal) was 2.93 µM.
